For data set [1], the system named is Mus musculus. Nature of the data set: Neurotoxicity in NMRI mouse assessed as impairment of motor coordination at 100 mg/kg after 30 mins by chimney test. Also noted: dose 100 mg/kg. It is filed as toxicity, organism-based. The following applies: in vivo, 0.5 h.
The subject of data set [2] is Mus musculus. Nature of the data set: Neurotoxicity in NMRI mouse assessed as impairment of motor coordination at 100 mg/kg after 30 mins by rotarod test. It is filed as toxicity, organism-based. Also noted: dose 100 mg/kg. Particulars: in vivo, 0.5 h.
Data set [3] deals with Mus musculus. The experiment in a line: Anticonvulsant activity in NMRI mouse assessed as […] of PTZ required to induce seizure at 100 mg/kg, ip after 30 mins (reference value: 31.5 +/- 4.4 mg/kg). It is filed as functional.
Data set [4] relates to Mus musculus. The experiment in a line: Anticonvulsant activity in NMRI mouse assessed as protection against electroshock-induced seizure at 100 mg/kg after 30 mins. It is filed as functional.
Data set [5] concerns Mus musculus. The experiment in a line: Anticonvulsant activity in NMRI mouse assessed as […] of PTZ required to induce seizure at 12.5 mg/kg, ip after 30 mins (reference value: 31.5 +/- 4.4 mg/kg). It is filed as functional.
Data set [6] has as its system Mus musculus. The experiment in a line: Neurotoxicity in NMRI mouse assessed as impairment of motor coordination at 12.5 mg/kg, ip after 30 mins by chimney test. It is filed as toxicity, organism-based. Also noted: dose 12.5 mg/kg, route intraperitoneal. Particulars: in vivo, 0.5 h.
Data set [7] concerns Mus musculus. Nature of the data set: Neurotoxicity in NMRI mouse assessed as impairment of motor coordination at 12.5 mg/kg, ip after 30 mins by rotarod test. It is filed as toxicity, organism-based. More on the design: dose 12.5 mg/kg, route intraperitoneal. The following applies: in vivo, 0.5 h.
Data set [8] concerns Mus musculus. Nature of the data set: Anticonvulsant activity in NMRI mouse assessed as protection against electroshock-induced seizure at 12.5 mg/kg, ip after 30 mins. It is filed as functional. The following applies: route intraperitoneal.

The source made the active and inactive calls. No cut-off for these calls is given here.

Take `Sc1nnc(-c2ccc(Cl)cc2)c(-c2ccc(Cl)cc2)n1`: the Activity entry in data set [1] and in data set [2] was “Non-toxic” in each case.
As to `Sc1nnc(-c2cccs2)c(-c2cccs2)n1`, the Activity is 24.42 mg/kg in data set [3], “Non-toxic” in data set [1] and “Non-toxic” in data set [2].
`CSc1nnc(-c2ccc(F)cc2)c(-c2ccc(F)cc2)n1`: the Activity in data set [1] was 33%; in data set [2] it was “Non-toxic”.
For `COc1ccc(-c2nnc(S)nc2-c2ccc(OC)cc2)cc1`, the Activity result in data set [1] and in data set [2] was “Non-toxic” each time. Moreover, the result in data set [4] was inactive.
`Clc1ccc(-c2nnc(SCc3ccncc3)nc2-c2ccc(Cl)cc2)cc1`: the Activity was 43 mg/kg in data set [3] and “Non-toxic” in data set [1].
In the case of `Cc1ccc(-c2nnc(SCc3cccnc3)nc2-c2ccc(C)cc2)cc1`, the Activity was 47 mg/kg in data set [3], “Non-toxic” in data set [1] and “Non-toxic” in data set [2].
Regarding `Cc1ccc(-c2nnc(S)nc2-c2ccc(C)cc2)cc1`, the Activity was 40.4 mg/kg in data set [3] and “Non-toxic” in data set [1].
Turning to `CSc1nnc(-c2ccc(C)cc2)c(-c2ccc(C)cc2)n1`, the Activity in data set [3] is 39.4 mg/kg; in data set [1], “Non-toxic”; in data set [2] it was “Non-toxic”.
Turning to `Cc1ccc(-c2nnc(SCc3ccncc3)nc2-c2ccc(C)cc2)cc1`, the Activity in data set [3] is 49.4 mg/kg; in data set [1], “Non-toxic”; in data set [2] it was “Non-toxic”; in data set [4], 100%.
Consider `COc1ccc(-c2nnc(SCc3cccnc3)nc2-c2ccc(OC)cc2)cc1`, for which the Activity in data set [3] is 41.5 mg/kg; in data set [1], “Non-toxic”; in data set [2] it was “Non-toxic”.
Turning to `CSc1nnc(-c2cccs2)c(-c2cccs2)n1`, the Activity was 38.23 mg/kg in data set [3], “Non-toxic” in data set [1] and “Non-toxic” in data set [2].
For the compound `Nc1nnc(-c2cccc(Cl)c2Cl)c(N)n1` [LAMOTRIGINE], the Activity was 72.9 mg/kg in data set [5], “Non-toxic” in data set [6], “Non-toxic” in data set [7] and 100% in data set [8].
Consider `COc1ccc(-c2nnc(SC)nc2-c2ccc(OC)cc2)cc1`, for which the Activity in data set [3] was 41.4 mg/kg; in data set [1], “Non-toxic”; in data set [2], “Non-toxic”.

(Values after ChEMBL document CHEMBL2424617, “Microwave-assisted synthesis and anticonvulsant activity of 5,6-bisaryl-1,2,4-triazine-3-thiol derivatives” (Med Chem Res, 2013).)
